According to patent publication US12551449B2, “Tunable degradation in hydrogel microparticles” (LIKARDA, INC., priority 2019, dated 2026):

Columns and labels:
[1] = thiol group(s); cited from earlier work
canine islets [2] = test: Cytotoxicity of UV light and photoinitiator on canine islets; type: cell-based; conditions: 10 minutes UV ~40 mW/cm^2
Protocol: (§1) Dead cells were identified using propidium iodine staining and fluorescence microscopy. Fluorescence micrographs were captured with a Cytation 5 Imaging Multi-Mode Reader (Biotek Instruments, Inc, 531/647 nm ex/em). Cell death was quantified by calculating the ratio of red (dead) pixels to total islet pixels using Adobe Photoshop. Twenty-five individual islets were analyzed per group and were distinguished from non-islet tissues via dithizone staining. Results are reported as the average viable cell fraction and normalized to islet viability of the matched, untreated controls (i.e., islet from the same batch in culture medium).
For PEGDA and methacrylated hyaluronic acid (MeHA) microparticles, photocrosslinking was utilized. Thus, studies examining the toxicity of ultraviolet light (UV) and the photoinitiator were first conducted. Canine islets were suspended in Dulbecco's phosphate buffered saline (DPBS) containing 0, 0.025 or 0.05% (w/v) of the photoinitiator, IRGACURE® 2959. Approximately 50 IEQ were loaded into wells of a 24-well plate and irradiated with long-wave ultraviolet (UV) light for 3, 5 or 10 minutes. […] Cell death was evaluated via propidium iodide staining and quantified as described in the previous section.

canine islets [3] = test: Cytotoxicity of calcium (CSS component) on canine islets, propidium iodide staining; type: cell-based
Protocol: The cytotoxicity of calcium, a component in the CSS process, was tested by exposing canine islets to solutions containing either 100 mM or 200 mM calcium chloride, 10 mM HEPES buffer, and 20% PEGDA, MW 3,400 Da (Laysan Bio, Inc.) for 5, 10 or 15 minutes. A group was also exposed to 100 mM calcium chloride without PEGDA to evaluate the effect of calcium alone. Islets were suspended at approximately 5,000 IEQ/mL in the test solutions to emulate the high cell loading density associated with the encapsulation process. After calcium exposure, islets were washed twice with supplemented CMRL 1066 islet media and then incubated at 37° C. and 5% CO2 for 3 hours prior to assessment.
as §1

| Compound | pKa [1] | further results |
| --- | --- | --- |
| SCCSCCS [2,2'-thiodiethanethiol] | 9.4-9.5 |  |
| SCCOCCS [2-mercaptoethyl ether] | 10.5-10.7 |  |
| N[C@H](CS)CCS [(S)-2 Aminobutane 1,4 dithiol] | 8.5 |  |
| O=C(CCS)OCCOC(=O)CCS [Glycol di(3mercaptopropionate)] | 9.4-9.5 |  |
| O=C(CS)OCCOC(=O)CS [Glycol dimercaptoacetate] | 7.9-8.1 |  |
| SCCOCCOCCOCCOCCOCCS [Hexaethhylene glycol dithiol] | 10.5-10.7 |  |
| CC(C)(O)C(=O)c1ccc(OCCO)cc1 [IRGACURE® 2959, 2-Hydroxy-4′-(2-hydroxyethoxy)-2-methylpropiophenone] |  | viable cell fraction (canine islets [2]; 0.025% (w/v)): 94.5%; viable cell fraction (canine islets [2]; 0.05% (w/v)): 87.2% |
| [Ca+2].[Cl-].[Cl-] [calcium, calcium chloride] |  | exposure time tolerated by islets (canine islets [3]; 100 mM calcium in concentrated, viscous PEGDA solution): at least 10 minutes; viability compared to controls (canine islets [3]; 100 mM calcium without PEGDA, 15 minutes): 97.6%; cytotoxicity to islets (canine islets [3]; 200 mM calcium): rapidly cytotoxic; viability compared to matched, untreated controls (canine islets [3]; 100 or 200 mM calcium with PEGDA or 100 mM calcium alone, 5 minutes exposure): above 97.5% |
| Glyceryl dithioglycolate | 7.9-8.1 |  |
